This note sets out measurements from patent US8242157B2, “Benzimidazole derivatives useful as TRPM8 channel modulators” (Janssen Pharmaceutica NV, priority 2009, dated 2012).

In general, pIC50 refers to −log10 of the IC50, conventionally taken in molar units.

One experiment addresses T1, canine TRPM8 (Canis lupus familiaris, UniProt Q1A7N1).
T1 construct: expressed in transfected cells
The experiment can be described thus: In Vitro Canine TRPM8 Functional Assay (icilin-induced intracellular Ca2+, FLIPR/FDSS). Format: cell-based. To be noted: for pIC50: icilin at approx. 80% maximal response, eight-point concentration-response; for % Inh @ 0.2 μM: 0.2 μM compound. How it is done: The functional activity of representative compounds of the formula (I) of the present invention was quantified by measuring changes in intracellular calcium concentration using a Ca^2+-sensitive fluorescent dye. The changes in fluorescent signal were monitored by a fluorescence plate reader, either a FLIPR™ (Molecular Devices) or FDSS (Hamamatsu).
HEK293 cells stably expressing canine TRPM8 were routinely grown as monolayers in Dulbecco's minimum essential medium supplemented with 10% FBS, 2 mM L-glutamine, 100 units/mL penicillin, 100 ug/mL streptomycin and 400 μg/mL G418. Cells were maintained in 5% CO2 at 37° C. At 24 hr prior to assay, cells were seeded in black wall, clear-base poly-D-lysine coated 384-well plates (BD Biosciences, NJ, USA) at a density of 5,000 cells per well in culture medium and grown overnight in 5% CO2 at 37° C. On assay day, growth media was removed, and cells were loaded with Calcium 3 Dye (Molecular Devices) for 35 min at 37° C., under 5% CO2 and then incubated for 25 min at room temperature and atmosphere. Subsequently, cells were tested for agonist-induced increases in intracellular Ca^2+ levels using FLIPR™ or FDSS. Cells were treated with compounds of the formula (I) at varying concentrations and intracellular […] was measured for 5 min prior to the addition of icilin to all wells to achieve a final concentration that produces approximately an 80% maximal response.
Basal FI was subtracted prior to normalizing data to percent of maximal response. Curves were generated using the average of quadruplicate wells for each data point using nonlinear regression of either sigmoidal dose response or sigmoidal dose response (variable slope). Finally, the EC50 and IC50 values were calculated with the best-fit curve determined by GraphPad Prism

In experiment [1] the test system is icilin-induced "wet-dog" shakes. As to the kind of experiment: Inhibition of icilin-induced "wet-dog" shakes in rats. Format: in vivo. The note with it: male Sprague Dawley rats; 10 mg/kg p.o., 60 min pre-icilin; vehicle 10% Solutol (0.5% HPMC for 47); [1-(test compound WDS count/vehicle WDS count)]x100. The procedure: Male Sprague Dawley rats ([…], Charles River Labs, n=6-9/treatment) were used to evaluate the ability of test compounds to block icilin-induced “wet-dog” shakes (WDS). The test compound was administered in an appropriate vehicle, such as hydroxypropyl-β-cyclodextrin (HP-β-CD), methocellulose, 10% Solutol, H2O or the like, by the appropriate route (e.g., i.p. or p.o.), 30-60 min before icilin. Icilin was then administered in PEG-400 or 10% solutol/H2O, at 1.0 or 3.0 mg/kg, i.p. and spontaneous “wet-dog” shakes were counted 10-20 min post-icilin.
Representative compounds of the present invention were tested at 10 mg/kg p.o. and 60 min pre-incilin, according to the procedure as described above. Results, as listed in Table 7 below, are presented as a percent inhibition of shakes, which was calculated as [1−(test compound WDS count/vehicle WDS count)]×100.

Setting [2] is: HEK293, 0.2 μM compound, HEK293 cells stably expressing canine TRPM8, icilin activation, read-out: % Inh @ 0.2 μM.
Where [3] appears, read: HEK293 cells stably expressing canine TRPM8, read-out: IC50.
Where [4] appears, read: HEK293 cells stably expressing canine TRPM8, icilin activation, 0.2 µM.

pIC50: −log10 of the molar value. Values joined by “and” are separate entries in the source; they are usually repeats but may differ in a detail not shown here. Identical values can stand only once. Like-named read-outs stand apart in the source and are kept apart here.

T1 sequence (Q1A7N1 1-1104): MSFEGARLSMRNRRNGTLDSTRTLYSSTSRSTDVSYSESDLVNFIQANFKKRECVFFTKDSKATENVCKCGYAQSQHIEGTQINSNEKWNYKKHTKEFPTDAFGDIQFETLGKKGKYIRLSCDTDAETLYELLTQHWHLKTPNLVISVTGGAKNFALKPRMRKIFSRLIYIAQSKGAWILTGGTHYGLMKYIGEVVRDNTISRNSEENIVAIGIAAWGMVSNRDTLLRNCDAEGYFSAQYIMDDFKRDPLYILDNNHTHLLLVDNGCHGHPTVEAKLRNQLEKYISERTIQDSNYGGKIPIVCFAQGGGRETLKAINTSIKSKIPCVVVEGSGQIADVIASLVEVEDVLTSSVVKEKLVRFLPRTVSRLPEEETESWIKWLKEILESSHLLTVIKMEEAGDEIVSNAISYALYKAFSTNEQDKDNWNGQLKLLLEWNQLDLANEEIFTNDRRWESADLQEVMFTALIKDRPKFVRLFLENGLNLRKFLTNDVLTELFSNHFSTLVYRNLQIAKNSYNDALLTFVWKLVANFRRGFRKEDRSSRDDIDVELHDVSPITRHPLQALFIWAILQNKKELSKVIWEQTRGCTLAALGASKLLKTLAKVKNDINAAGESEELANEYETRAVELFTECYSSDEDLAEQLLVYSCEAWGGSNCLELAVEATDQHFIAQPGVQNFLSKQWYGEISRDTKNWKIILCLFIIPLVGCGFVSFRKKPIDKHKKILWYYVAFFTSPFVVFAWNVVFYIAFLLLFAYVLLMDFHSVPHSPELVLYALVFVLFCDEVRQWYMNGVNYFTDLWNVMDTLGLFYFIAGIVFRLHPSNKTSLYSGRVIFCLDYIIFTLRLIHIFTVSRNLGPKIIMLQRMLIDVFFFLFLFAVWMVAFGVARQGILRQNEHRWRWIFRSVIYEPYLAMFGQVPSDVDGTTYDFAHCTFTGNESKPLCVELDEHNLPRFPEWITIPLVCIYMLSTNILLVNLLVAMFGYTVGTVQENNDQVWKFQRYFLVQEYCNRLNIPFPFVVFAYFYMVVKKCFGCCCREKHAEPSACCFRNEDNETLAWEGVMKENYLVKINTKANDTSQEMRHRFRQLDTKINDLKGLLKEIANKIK

In the case of `Cn1c(N(Cc2ccc(F)c(Cl)c2)S(=O)(=O)c2ccccc2)nc2ccccc21` [compound 20], the inhibition at 0.2 µM on canine TRPM8 (setting [2]) was determined as 101%. The pIC50 on canine TRPM8 (setting [3]) is 9.00. In addition, the “% Inhibition of shakes” value in experiment [1] stood at 32.6%.

Turning to `O=S(=O)(c1ccccc1)N(Cc1ccc(C(F)(F)F)cc1)c1nc2ccccc2n1CC(F)(F)F` [compound 54], the “% Inh @ 0.2 μM” value on canine TRPM8 (HEK293 cells stably expressing canine TRPM8, icilin activation) is recorded as 85, 85%. In addition, at canine TRPM8 (setting [2]), the inhibition at 0.2 µM came out at 85%. For the same compound, at canine TRPM8 (setting [3]), the negative logarithm of the IC50 (pIC50) was 7.82 and 7.12. Also, the “% Inhibition of shakes” value in experiment [1] stood at 2.4%.

Regarding `Cn1c(N(Cc2ccc(OC(F)(F)F)cc2)S(=O)(=O)c2ccccc2)nc2ccccc21` [Compound #6], at canine TRPM8 (setting [4]), the “% Inh @ 0.2 μM” value amounted to 100%. In addition, the inhibition at 0.2 µM at canine TRPM8 (setting [2]) came to 101%. Also, at canine TRPM8 (setting [3]), the pIC50 was 9.00 and 8.70. Also, the “% Inhibition of shakes” value in experiment [1] was determined as 20.2%.

On to `CCn1c(N(Cc2ccc(C(F)(F)F)cc2)S(=O)(=O)c2ccccc2)nc2cc(F)ccc21` [Compound #47, N-(1-Ethyl-5-fluoro-1H-benzimidazol-2-yl)-N-(4-trifluoromethyl-benzyl)-benzenesulfonamide], for which, on canine TRPM8 (HEK293, read-out: % Inh @ 0.2 μM), the inhibition at 0.2 µM was determined as 100%. The pIC50 against canine TRPM8 (IC50, HEK293 cells stably expressing canine TRPM8) was 8.22. Moreover, the “% Inhibition of shakes” value in experiment [1] is listed as 36%.

Regarding `Cn1c(N(Cc2ccc(F)cc2)S(=O)(=O)c2ccccc2)nc2ccccc21` [compound 8], at canine TRPM8 (setting [2]), the inhibition at 0.2 µM was determined as 101%. Further, the negative logarithm of the IC50 (pIC50) at canine TRPM8 (setting [3]) was 8.40.

As for `O=S(=O)(c1ccccc1)N(Cc1ccc(C(F)(F)F)c(F)c1)c1nc2ccccc2n1CC(F)(F)F` [Compound #60, N-(3-Fluoro-4-trifluoromethyl-benzyl)-N-[1-(2,2,2-trifluoro-ethyl)-1H-benzimidazol-2-yl]-benzenesulfonamide], the inhibition at 0.2 µM on canine TRPM8 (setting [2]) is 89%. Further, the negative-log IC50 (pIC50) on canine TRPM8 (setting [3]) is 7.57.

In the case of `CC(C)Cn1c(N(Cc2ccc(C(F)(F)F)cc2)S(=O)(=O)c2ccccc2)nc2ccccc21` [compound 24], on canine TRPM8 (setting [2]), the inhibition at 0.2 µM worked out at 71%. In addition, the negative logarithm of the IC50 (pIC50) at canine TRPM8 (setting [3]) is 7.11.

For the compound `CCCCN(c1nc2ccccc2n1Cc1ccccc1)S(=O)(=O)c1ccccc1` [Compound #1, N-(1-benzyl-1H-benzimidazol-2-yl)-N-butyl-benzenesulfonamide], the inhibition at 0.2 µM on canine TRPM8 (setting [2]) was found to be 19%.

Consider `CCCCN(c1nc2ccccc2n1C)S(=O)(=O)c1ccccc1` [Compound #4, N-Butyl-N-(1-methyl-1H-benzimidazol-2-yl)-benzenesulfonamide], for which the inhibition at 0.2 µM on canine TRPM8 (setting [2]) was found to be 92%. Besides, on canine TRPM8 (setting [3]), the pIC50 is 7.39.

Take `O=S(=O)(c1ccccc1)N(Cc1ccc(OC(F)(F)F)cc1)c1nc2cccc3c2n1CCC3` [compound 62]: at canine TRPM8 (setting [2]), the inhibition at 0.2 µM stood at 100%. The negative logarithm of the IC50 (pIC50) on canine TRPM8 (setting [3]) is 7.72.

As for `Cc1ccc2nc(N(Cc3ccc(OC(F)(F)F)cc3)S(=O)(=O)c3ccccc3)n(C)c2c1` [compound 66], the inhibition at 0.2 µM on canine TRPM8 (setting [2]) turned out to be 98%. Besides, on canine TRPM8 (setting [3]), the pIC50 was 7.68.

Regarding `CC(C)n1c(N(Cc2ccc(OC(F)(F)F)cc2)S(=O)(=O)c2ccccc2)nc2cc(Cl)ccc21` [compound 61], the inhibition at 0.2 µM at canine TRPM8 (setting [2]) is 96%. For the same compound, on canine TRPM8 (setting [3]), the pIC50 is 7.33.

For the compound `Cn1c(N(Cc2ccc(C(F)(F)F)c(F)c2)S(=O)(=O)c2ccccc2)nc2ccccc21` [compound 21], the inhibition at 0.2 µM at canine TRPM8 (setting [2]) is 102%. For the same compound, the negative-log IC50 (pIC50) at canine TRPM8 (setting [3]) was 9.00.

Take `CC(C)n1c(N(Cc2ccc(C(F)(F)F)c(F)c2)S(=O)(=O)c2ccccc2)nc2cc(Cl)ccc21` [compound 56]: on canine TRPM8 (setting [2]), the inhibition at 0.2 µM was determined as 96%. Further, on canine TRPM8 (setting [3]), the negative-log IC50 (pIC50) is 7.62.

As to `Cn1c(N(c2ccc(Cl)cc2)S(=O)(=O)c2ccccc2)nc2ccccc21` [Compound #36, N-(4-Chloro-phenyl)-N-(1-methyl-1H-benzimidazol-2-yl)-benzenesulfonamide], at canine TRPM8 (setting [2]), the inhibition at 0.2 µM was determined as 94%. For the same compound, the negative logarithm of the IC50 (pIC50) on canine TRPM8 (setting [3]) was 7.48.

`Cc1ccc2nc(N(Cc3ccc(C(F)(F)F)cc3)S(=O)(=O)c3ccccc3)n(C)c2c1` [compound 68]: the inhibition at 0.2 µM on canine TRPM8 (setting [2]) is 99%. Besides, the negative-log IC50 (pIC50) at canine TRPM8 (setting [3]) is 7.62.

As to `CCn1c(N(Cc2ccc(C(F)(F)F)c(F)c2)S(=O)(=O)c2ccccc2)nc2ccccc21` [compound 34], the inhibition at 0.2 µM at canine TRPM8 (setting [2]) is 102%. Also, the negative-log IC50 (pIC50) at canine TRPM8 (setting [3]) is 8.15.

`CCn1c(N(Cc2ccc(OC(F)(F)F)cc2)S(=O)(=O)c2ccccc2)nc2ccccc21` [compound 29]: on canine TRPM8 (setting [2]), the inhibition at 0.2 µM is 95%. Moreover, the negative-log IC50 (pIC50) on canine TRPM8 (setting [3]) was 8.30.

Take `Cn1c(N(Cc2ccc(F)c(C(F)(F)F)c2)S(=O)(=O)c2ccccc2)nc2ccccc21` [Compound #15, N-(4-Fluoro-3-trifluoromethyl-benzyl)-N-(1-methyl-1H-benzimidazol-2-yl)-benzenesulfonamide]: at canine TRPM8 (setting [4]), the “% Inh @ 0.2 μM” value was determined as 98%. For the same compound, the inhibition at 0.2 µM on canine TRPM8 (setting [2]) came to 102%. Further, the negative logarithm of the IC50 (pIC50) at canine TRPM8 (setting [3]) is 9.00 and 8.40. Also, the “% Inhibition of shakes” value in experiment [1] turned out to be 27.7%.

For the compound `CCCCN(c1nc2ccccc2n1CCO)S(=O)(=O)c1ccccc1` [compound 2, N-butyl-N-[1-(2-hydroxy-ethyl)-1H-benzimidazol-2-yl]-benzenesulfonamide], the inhibition at 0.2 µM at canine TRPM8 (setting [2]) turned out to be 11%.

Consider `O=S(=O)(c1ccccc1)N(Cc1ccc(C(F)(F)F)c(F)c1)c1nc2cccc3c2n1CCC3` [compound 63], for which the inhibition at 0.2 µM at canine TRPM8 (setting [2]) worked out at 101%. Moreover, the negative-log IC50 (pIC50) on canine TRPM8 (setting [3]) is 7.66.

With `O=S(=O)(c1ccccc1)N(Cc1ccc(C(F)(F)F)c(F)c1)c1nc2ccccc2n1CC1CC1` [Compound #71, N-(1-Cyclopropylmethyl-1H-benzimidazol-2-yl)-N-(3-fluoro-4-trifluoromethyl-benzyl)-benzenesulfonamide], on canine TRPM8 (setting [2]), the inhibition at 0.2 µM worked out at 101%. For the same compound, at canine TRPM8 (setting [3]), the pIC50 was 7.43.

Regarding `Cc1cc2nc(N(Cc3ccc(C(F)(F)F)c(F)c3)S(=O)(=O)c3ccccc3)n(C)c2cc1C` [compound 75], at canine TRPM8 (setting [2]), the inhibition at 0.2 µM is 101%. Also, the negative logarithm of the IC50 (pIC50) at canine TRPM8 (setting [3]) was 7.55.
